# Read-outs that look alike come from different tables or passages of the source.
# Tests used:
# L1210 = test: In vitro cell growth inhibition (MTT, modified Mosmann method), L1210; assay type: cell-based; conditions: Mus musculus, continuous (72-hour) exposure, mean IC50, read-out: IC50 Cell Culture L1210
# Method: (§1) All cultures were maintained at 37°C, 5% air-CO2 in a humidified incubator.
# (§2) Stock solutions of the inhibitors were prepared in 10 mM sodium bicarbonate in water and stored in 1 ml aliquots at - 20°C for cell culture experiments. Cell growth inhibition was measured by a modification of the method of Mosmann, J. Immunol. Methods 65 (1983), 55-63.
# (§3) Mid-log phase cells of each cell line were diluted to 18,500 cells/ml in fresh RPMI growth medium (Mediatech, Washington, DC) supplemented with dialyzed fetal calf serum (Hyclone Laboratories Inc., Logan, UT) and then aliquotted into columns 2 through 12 of 96-well microtiter plates. Column 1 was filled with the same volume ([…]) of fresh medium, without cells, for use as a blank. The plates were then placed in a 37°C, 5% air-CO2 incubator. After 1 to 4 hours, plates were removed from the incubator followed by addition of Compound 1 at 10 x final concentration, […] in binary dilutions, to columns 12 to 4. […] The extent of metabolized MTT was measured spectrophotometrically at 540 nm on a Molecular Devices Vmax kinetic microplate reader. The concentration of drug required to reduce cell growth by 50% as measured by MTT metabolism was determined by interpolation between the O.D. (minus blank) immediately above and below 50% of control O.D. (minus blank).
# CCRF-CEM = test: In vitro cell growth inhibition (MTT, modified Mosmann method), CCRF-CEM; assay type: cell-based; conditions: Homo sapiens, continuous (72-hour) exposure per table title, Table 2 gives 5 days incubation, mean IC50, read-out: IC50 Cell CultureCCRF-CEM
# Method: as §1, §2, §3
# [1] = target: catalytic domain of the human GARFT (Homo sapiens, UniProt P22102); test: biochemical
# Method: The GAR-transformylase (GARFT) assay method of Young et al., Biochemistry 23 (1984), 3979-3986, was modified and used as described below. Reactions mixtures contained the catalytic domain of the human GARFT, 0-250 nM of Compound 1, 20 µM glycinamide ribonucleotide (GAR), 10 or 20 µM N^10-formyl-5,8-dideazafolate (FDDF), 50 mM HEPES-KOH, pH 7.5, and 50 mM KCl. The reaction was initiated with the addition of enzyme to a final concentration of 11 nM, followed by monitoring of the increase in absorbance at 294 nm at 20°C (e294 = 18.9 mM^-1 cm^-1).
# The GARFT inhibition constant (Ki) was determined from the dependence of the steady-state catalytic rate on inhibitor and substrate concentration. […] The Michaelis constant for FDDF, Km, was determined independently by the dependence of the catalytic rate on FDDF concentration. Data for both the Km and Ki determinations were fitted by nonlinear methods to the Michaelis equation, or the Michaelis equation for competitive inhibition, as appropriate. Data resulting from tight-binding inhibition was analyzed, and Ki determined, by fitting the data to the tight-binding equation of Morrison, Biochem Biophys Acta 185 (1969), 269-286, by nonlinear methods.
# 6C3HED lymphosarcoma = assay type: in vivo; conditions: tumor mass vs control on day 11
# Method: On day zero, 2 mm^2 trocar fragments of 6C3HED lymphosarcoma were implanted subcutaneously in the axillary region into groups of six C3H/He female mice. Starting on day 1, the test compound was administered intraperitoneally in 40% Encapsin given once daily for nine days. Control animals received identical treatment without test compound. The percentage inhibition given in Table 4 below was calculated by comparing the mass of the control tumors (receiving diluent only) on day 11 to those of animals receiving test compound.
# [2] = system: C3H/BA mammary adenocarcinoma; assay type: in vivo; conditions: tumor mass vs control on day 14
# Method: On day zero, 2 mm^2 trocar fragments of C3H/BA mammary adenocarcinoma were implanted subcutaneously in the axillary region into groups of six C3H/He female mice. Starting on day 1, the test compound was administered intraperitoneally in 40% Encapsin given once daily for nine days. Control animals received identical treatment without test compound. The percentage of inhibition was calculated by comparing the mass of the control tumors (receiving diluent only) on day 14 to those of animals receiving test compound.
# Sequence of catalytic domain of the human GARFT (P22102 810-1010 limits assumed): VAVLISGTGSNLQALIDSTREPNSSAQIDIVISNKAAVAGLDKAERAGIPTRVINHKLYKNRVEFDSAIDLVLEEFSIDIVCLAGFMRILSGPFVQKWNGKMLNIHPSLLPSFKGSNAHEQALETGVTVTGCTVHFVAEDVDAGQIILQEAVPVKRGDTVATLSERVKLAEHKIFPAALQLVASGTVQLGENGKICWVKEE
smiles,measurement,setting,value
"Nc1nc2c(c(=O)[nH]1)SC(CCc1ccc(C(=O)N[C@@H](CCC(=O)O)C(=O)O)s1)CN2 (stereo partly drawn) [Compound 1, 4-[2-(2-Amino-4-oxo-4,6,7,8-tetrahydro-3H-pyrimido[5,4-6][1,4]thiazin-6-yl)-ethyl]-2,5-thienoylamino-L-glutamic acid]",IC50,L1210,16 nM
same,IC50,CCRF-CEM,4.3 nM
same,Ki,[1],4.5 nM
same,% Inhibition,6C3HED lymphosarcoma; 12.5 mg/kg intraperitoneally in 40% Encapsin once daily for nine days,100%
same,% Inhibition,6C3HED lymphosarcoma; 25 mg/kg intraperitoneally in 40% Encapsin once daily for nine days,100%
same,% Inhibition,6C3HED lymphosarcoma; 50 mg/kg intraperitoneally in 40% Encapsin once daily for nine days,toxic
same,% Inhibition,[2]; 5 mg/kg intraperitoneally in 40% Encapsin once daily for nine days,16%
same,% Inhibition,[2]; 10 mg/kg intraperitoneally in 40% Encapsin once daily for nine days,84%
same,% Inhibition,[2]; 20 mg/kg intraperitoneally in 40% Encapsin once daily for nine days,100%
